# Marks after values point to notes of the source that are not given here.
# What was measured:
# [1] = biological target: T1, human recombinant β1 receptors (Homo sapiens, UniProt P08588); test: β1 radioligand binding assay
# T1 construct: expressed in transfected cells; host or cells: CHO cells
# [2] = biological target: T2, human recombinant β2 receptors (Homo sapiens, UniProt P07550); test: β2 radioligand binding assay
# adrenergic β2 receptors = biological target: T3, adrenergic β2 receptors (Cavia porcellus, UniProt Q8K4Z4); test: β2 adrenergic functional activity, relaxation of spontaneous tone of isolated trachea; parameters: species or system Dunkin Hartley Guinea pigs
# T3 construct: from tissue; host or cells: isolated trachea, Dunkin Hartley guinea pig
# [3] = biological target: T2, human recombinant β2 receptors; test: Intrinsic activity assessment (β2), cAMP production in CHO cells; format: cell-based; conditions: relative to procaterol, read-out: intrinsic activity (% response relative to procaterol-induced cAMP increase)
# adrenergic β1 receptors = adrenergic β1 receptors (Cavia porcellus, UniProt H0W3H1); test: β1 adrenergic functional activity, positive chronotropic effect in isolated right atria; parameters: species or system Dunkin Hartley Guinea pigs; conditions: read-out: increase in heart rate, β1 functional assay
# Description: β1 and β2 Adrenergic Activity (Functional)
# The concentration that gives 50% maximal effect is the EC50.
# [4] = Stability in aqueous buffered solutions (HPLC assay); format: physicochemical
# Description: Stability in Aqueous Buffered Solutions
# Solution Preparations: For each test compound, the following solutions are prepared.
# • Solution A is prepared from ˜30 mg of the test compound in 150 mL of 0.005 M citrate buffer, pH 5.0 (˜0.2 mg/mL). • Solution B is prepared as follows: approximately 30 mL aliquot of Solution A is transferred to a separated container and the pH of the solution is adjusted to pH 3.0 with 1 N HCl (˜0.2 mL). • Solution C is prepared as follows: approximately 30 mL aliquot of Solution A is transferred to a separated container and the pH of the solution is adjusted to pH ˜8.0 with 1 N NaOH (˜0.2 mL). • Note: Because the volume of 1 N HCl or 1 N NaOH used for adjusting pH was negligible, the concentration of test compound in Solutions A, B and C were the same.
# Storage Scheme • As soon as the above solutions were prepared, aliquots of each solution were transferred into 11 vials, of which 9 vials are stored at −20° C., and one each is stored at 30° C. and 40° C., respectively. • At each interval listed below, two vials are removed from −20° C. storage, and stored at 30° C. and 40° C., respectively. • The corresponding weeks under the storage condition (30° C. or 40° C.) are shown in the table below.
# On Week 12, the last vial stored at −20° C. is removed and warmed up to the room temperature, which is the Day 0 Solution.
# Sample Analysis: On Week 12, all solutions are assayed by an HPLC method using the Day 0 Solution at pH 5 as a standard solution. The test compounds were assayed by HPLC with UV detection (refer to Table 1 for method conditions).
# T2 sequence (P07550 whole entry): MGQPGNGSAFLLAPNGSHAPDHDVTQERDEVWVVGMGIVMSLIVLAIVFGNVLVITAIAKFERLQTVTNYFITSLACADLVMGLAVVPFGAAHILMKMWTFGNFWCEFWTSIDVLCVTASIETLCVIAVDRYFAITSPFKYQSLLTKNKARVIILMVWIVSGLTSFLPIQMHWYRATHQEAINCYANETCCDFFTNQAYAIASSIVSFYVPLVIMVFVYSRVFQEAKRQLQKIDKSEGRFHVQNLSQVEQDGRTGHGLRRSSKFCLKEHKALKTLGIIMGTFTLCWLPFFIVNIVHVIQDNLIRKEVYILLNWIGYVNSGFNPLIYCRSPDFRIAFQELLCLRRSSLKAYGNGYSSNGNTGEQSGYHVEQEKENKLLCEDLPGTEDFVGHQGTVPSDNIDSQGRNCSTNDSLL
# T1 sequence (P08588 whole entry): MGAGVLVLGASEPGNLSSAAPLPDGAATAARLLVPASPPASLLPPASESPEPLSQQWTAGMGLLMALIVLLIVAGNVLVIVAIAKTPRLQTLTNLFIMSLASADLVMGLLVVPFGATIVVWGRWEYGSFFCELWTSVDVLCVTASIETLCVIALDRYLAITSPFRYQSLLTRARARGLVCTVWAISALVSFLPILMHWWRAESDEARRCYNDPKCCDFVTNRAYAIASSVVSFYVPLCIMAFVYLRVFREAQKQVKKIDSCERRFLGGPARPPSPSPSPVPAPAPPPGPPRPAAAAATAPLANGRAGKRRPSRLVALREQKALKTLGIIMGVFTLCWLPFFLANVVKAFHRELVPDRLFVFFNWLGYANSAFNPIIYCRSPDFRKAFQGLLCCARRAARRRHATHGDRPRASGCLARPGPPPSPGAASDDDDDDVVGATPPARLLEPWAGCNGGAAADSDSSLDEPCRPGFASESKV
# T3 sequence (Q8K4Z4 whole entry): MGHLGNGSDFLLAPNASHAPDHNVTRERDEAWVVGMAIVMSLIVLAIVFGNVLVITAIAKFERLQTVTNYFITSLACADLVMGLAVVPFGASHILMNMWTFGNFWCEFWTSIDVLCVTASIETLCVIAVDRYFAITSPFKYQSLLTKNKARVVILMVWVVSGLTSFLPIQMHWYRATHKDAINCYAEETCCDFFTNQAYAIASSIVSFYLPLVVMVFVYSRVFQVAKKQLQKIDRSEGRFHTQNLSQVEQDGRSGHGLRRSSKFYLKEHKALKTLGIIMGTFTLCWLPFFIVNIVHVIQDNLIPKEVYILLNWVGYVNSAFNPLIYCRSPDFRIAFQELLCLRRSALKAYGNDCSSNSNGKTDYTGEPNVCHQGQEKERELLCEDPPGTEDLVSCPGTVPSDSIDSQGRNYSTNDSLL
# adrenergic β1 receptors, sequence (H0W3H1 1-470): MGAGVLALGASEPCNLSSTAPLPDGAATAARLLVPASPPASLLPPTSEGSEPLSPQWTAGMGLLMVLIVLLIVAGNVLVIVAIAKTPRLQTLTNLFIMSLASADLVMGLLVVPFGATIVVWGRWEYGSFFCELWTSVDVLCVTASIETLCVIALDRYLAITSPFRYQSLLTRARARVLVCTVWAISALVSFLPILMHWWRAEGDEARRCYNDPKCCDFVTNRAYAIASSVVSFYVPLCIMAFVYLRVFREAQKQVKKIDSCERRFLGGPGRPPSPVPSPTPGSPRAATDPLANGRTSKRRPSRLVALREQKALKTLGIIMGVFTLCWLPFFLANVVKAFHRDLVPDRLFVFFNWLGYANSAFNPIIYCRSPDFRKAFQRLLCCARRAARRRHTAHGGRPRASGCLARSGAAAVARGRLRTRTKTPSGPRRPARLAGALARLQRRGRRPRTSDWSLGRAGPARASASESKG
structure (smiles),measurement,setting,value
"CC(=O)Nc1cc([C@H](O)CN[C@H](C)Cc2ccc(O)cc2)ccc1O [Example 1, N-[2-hydroxy-5-[(1S)-1-hydroxy-2-[[(1R)-2-(4-hydroxyphenyl)-1-methylethyl]amino]ethyl]phenyl]acetamide]",inhibition at 20 µM,"[1]; at a concentration of 20 μM, read-out: inhibition of specific binding, β1 receptor",30%
same,Ki,"[1]; displacement of [125I]-cyanopidolol, CHO cells, read-out: Ki for the β1 receptor",> 20000 nM
same,Ki,"[2]; displacement of [3H]-CGP-12177, CHO cells, read-out: Ki for the β2 receptor",2210 nM
same,β1/β2 binding ratio,[2]; ratio of β1 to β2 binding Ki,> 9
same,EC50,adrenergic β2 receptors; isolated guinea pig trachea,120 nM
same,β1/β2 functional ratio,adrenergic β2 receptors; ratio of β1 to β2 functional EC50,> 250
same,melting point,,97 to 100 °C
same,Emax,[3],71%
same,activation at 30 µM,adrenergic β1 receptors,32%
same,% of Initial Concentration,"[4]; pH 3.0, 30° C., 0 wk",99.46%
same,% of Initial Concentration,"[4]; pH 3.0, 30° C., 1 wk",100.03%
same,% of Initial Concentration,"[4]; pH 3.0, 30° C., 2 wk",99.84%
same,% of Initial Concentration,"[4]; pH 3.0, 30° C., 4 wk",101.41%
same,% of Initial Concentration,"[4]; pH 3.0, 30° C., 8 wk",100.33%
same,% of Initial Concentration,"[4]; pH 3.0, 30° C., 12 wk",100.29%
same,% of Initial Concentration,"[4]; pH 3.0, 40° C., 0 wk",99.46%
same,% of Initial Concentration,"[4]; pH 3.0, 40° C., 1 wk",99.89%
same,% of Initial Concentration,"[4]; pH 3.0, 40° C., 2 wk",100.11%
same,% of Initial Concentration,"[4]; pH 3.0, 40° C., 4 wk",99.54%
same,% of Initial Concentration,"[4]; pH 3.0, 40° C., 8 wk",99.18%
same,% of Initial Concentration,"[4]; pH 3.0, 40° C., 12 wk",97.17%
same,time found to be very stable in aqueous solution,"[4]; pH 3 or 5, stored at 30° C.",at least 12 weeks
same,% of Initial Concentration,"[4]; pH 5.0, 30° C., 0 wk",100.25%
same,% of Initial Concentration,"[4]; pH 5.0, 30° C., 1 wk",101.22%
same,% of Initial Concentration,"[4]; pH 5.0, 30° C., 2 wk",101.07%
same,% of Initial Concentration,"[4]; pH 5.0, 30° C., 4 wk, flagged out of trend",112.52* %
same,% of Initial Concentration,"[4]; pH 5.0, 30° C., 8 wk",107.12%
same,% of Initial Concentration,"[4]; pH 5.0, 30° C., 12 wk",107.75%
same,% of Initial Concentration,"[4]; pH 5.0, 40° C., 0 wk",100.25%
same,% of Initial Concentration,"[4]; pH 5.0, 40° C., 1 wk",102.00%
same,% of Initial Concentration,"[4]; pH 5.0, 40° C., 2 wk",102.73%
same,% of Initial Concentration,"[4]; pH 5.0, 40° C., 4 wk",102.94%
same,% of Initial Concentration,"[4]; pH 5.0, 40° C., 8 wk, flagged out of trend",122.32* %
same,% of Initial Concentration,"[4]; pH 5.0, 40° C., 12 wk, flagged out of trend",112.61* %
same,% of Initial Concentration,"[4]; ~pH 8, 30° C., 0 wk",100.38%
same,% of Initial Concentration,"[4]; ~pH 8, 30° C., 1 wk",99.64%
same,% of Initial Concentration,"[4]; ~pH 8, 30° C., 2 wk",99.60%
same,% of Initial Concentration,"[4]; ~pH 8, 30° C., 4 wk",96.62%
same,% of Initial Concentration,"[4]; ~pH 8, 30° C., 8 wk, flagged out of trend",26.79* %
same,% of Initial Concentration,"[4]; ~pH 8, 30° C., 12 wk",89.93%
same,% of Initial Concentration,"[4]; ~pH 8, 40° C., 0 wk",100.38%
same,% of Initial Concentration,"[4]; ~pH 8, 40° C., 1 wk",97.44%
same,% of Initial Concentration,"[4]; ~pH 8, 40° C., 2 wk",93.75%
same,% of Initial Concentration,"[4]; ~pH 8, 40° C., 4 wk",86.72%
same,% of Initial Concentration,"[4]; ~pH 8, 40° C., 8 wk",72.25%
same,% of Initial Concentration,"[4]; ~pH 8, 40° C., 12 wk",61.36%
